From patent publication US9352015B2, “Antimicrobial peptides” (priority 2009, dated 2016)
Converted amounts (≈) assume the structure as drawn. “And” between values parts separate entries of the source, which are not always exact repeats. Identical values can stand only once. Like-named read-outs stand apart in the source and are kept apart here.

Legend:
Pseudomonas aeruginosa = conditions: for MIC PAO 1: 37° C., 24 h, strain PAO1; for MIC GM (geometric mean of the MIC values): six P. aeruginosa strains; for MIC CP 204: strain CP204; for MIC M 2: strain M2; for MIC PA 14: strain PA14; for MIC PAK: strain PAK; for MIC WR 5: strain WR5
[1] = tested on: Methicillin Resistant Staphylococcus aureus (MRSA) and Staphylococcus aureus; type: cell-based
Procedure: (§1) Minimal inhibitory concentrations (MICs) are determined using a standard microtiter dilution method, with 3 sets of determinations, in LB (Luria-Bertani) no-salt medium (10 g of tryptone and 5 g of yeast extract per liter). In some cases, Mueller Hinton (MH) medium or Brain Heart Infusion (BHI) medium is used.
(§2) Briefly, cells were grown overnight at 37° C. in LB and diluted in the same medium. Serial dilutions of the peptides are added to the microtiter plates in a volume of 100 μl followed by 10 μl of bacteria to give a final inoculum of 5×10^5 colony-forming units/ml. Plates are incubated at 37° C. for 24 hours and MICs determined as the lowest peptide concentration that inhibited growth. Alternatively, minimal inhibitory concentrations are determined using a standard microtiter dilution method in a Mueller-Hinton (MH) medium. Briefly, cells are grown overnight at 37° C. in MH broth and diluted in the same medium. In some cases, serial dilutions of the peptides are added to the microtiter plates in a volume of 100 μl followed by 10 μl of bacteria to give a final inoculum of 1×10^5 colony-forming units/ml. Plates are incubated at 37° C. for 24 hours and MICs are determined as the lowest peptide concentration that inhibited growth.
Identification of Antimicrobial Peptides for Gram-positive Bacteria. In a manner similar to testing against gram-negative bacteria, experiments were carried out to screen the 14 peptides used to identify antimicrobial peptides with significant activity against A. baumanii shown above against 20 different clinical isolates of Methicillin Resistant Staphylococcus aureus (MRSA) and Staphylococcus aureus.

[2] = RP-HPLC temperature profiling (peptide self-association parameter PA); type: physicochemical; conditions: RP-HPLC temperature profiling 5-80° C., pH 2, relative to control peptide C
Procedure: Temperature profiling analyses were performed on the same column in 3° C. increments, from 5° C. to 80° C., using a linear AB gradient of 0.5% acetonitrile/min, as described previously (30, 53, 92, 93).
Peptide self-association (i.e., the ability to oligomerize/dimerize) in aqueous solution is a very important parameter for antimicrobial activity (53, 92, 93). Without wishing to be bound by any particular theory, the present inventors postulated that monomeric random-coil antimicrobial peptides are best suited to pass through the capsule and cell wall of microorganisms prior to penetration into the cytoplasmic membrane, induction of α-helical structure and disruption of membrane structure to kill target cells (93). Thus, if the self-association ability of a peptide in aqueous media is too strong (e.g., forming stable folded dimers through interaction of their non-polar faces) this could decrease the ability of the peptide to dissociate to monomer, in addition oligomerization of the peptide can prevent it from effectively passing through the capsule and cell wall to reach the membrane. The ability of the peptides in the present study to self-associate was determined by the technique of RP-HPLC temperature profiling at pH 2 (29, 30, 38). The reason pH 2 is used to determine self-association of cationic AMPs is that highly positively charged peptides are frequently not eluted from reversed-phase columns at pH 7 due to non-specific binding to negatively charged silanols on the column matrix. This is not a problem at pH 2 since the silanols are protonated (i.e., neutral) and non-specific electrostatic interactions are eliminated. At pH 2, the interactions between the peptide and the reversed-phase matrix involve ideal retention behavior, i.e., only hydrophobic interactions between the preferred binding domain (nonpolar face) of the amphipathic molecule and the hydrophobic surface of the column matrix are present (39). […] Control peptide C is a monomeric random coil peptide in both aqueous and hydrophobic media; thus, its linear decrease in peptide retention behavior with increasing temperature within the range of 5° C. to 80° C. represents only the general effects of temperature due to greater solute diffusivity and enhanced mass transfer between the stationary and mobile phase at higher temperatures (55). To allow for these general temperature effects, the data for the control peptide was subtracted from each temperature profile as shown in FIG. 2B. Thus, the peptide self-association parameter, PA, represents the maximum change in peptide retention time relative to the random coil peptide C. Note that the higher the PA value, the greater the self-association.

Acinetobacter baumannii = type: cell-based
Procedure: as §1, §2
The biological activities of these six peptide analogs was determined against 11 clinical isolated of Acinetobacter baumannii (Table 9). Please note that the activities are reported in micromolar rather than microgram/ml. This allows a direct comparison on a molar basis with the effectiveness of molecules of different molecular weights whether peptides disclosed herein or antibiotics which in general are smaller in molecular mass. […] These are the highest antimicrobial activities observed in studies of antimicrobial peptides derived by modifying the peptide sequence of SEQ ID NO:24 (D1). D22 has the best hemolytic activity of the six analogs (D17-D22) and a therapeutic index of […] compared to […] for D1 (Table 9). D22 has no apparent advantage over D1 as determined in these experiments.

[3] = Hemolytic activity against human erythrocytes (HC50 / MHC, microtiter dilution); type: cell-based; conditions: human, 1% human erythrocytes, pH 7.4
Procedure: Hemoglobin release was determined spectrophotometrically at 570 nm. The hemolytic activity was determined as the peptide concentration that caused 50% hemolysis of erythrocytes after 18 h (HC50). […] HC50 was determined by a plot of peptide concentration versus percent lysis.

[4] = RP-HPLC retention as measure of overall peptide hydrophobicity; type: physicochemical; conditions: pH 2, room temperature
Procedure: Crude and purified peptides were analyzed on an Agilent 1100 series liquid chromatograph (Little Falls, Del.). Runs were performed on a Zorbax 300 SB-C8 column (150×2.1 mm I.D.; 5 μm particle size, 300 Å pore size) from Agilent Technologies using linear AB gradient (1% acetonitrile/min) and a flow rate of 0.25 ml/min, where eluant A was 0.2% aqueous TFA, pH 2 and eluant B was 0.2% TFA in acetonitrile.

Row | MIC PAO 1 (Pseudomonas aeruginosa; Brain Heart Infusion medium) [µg/mL] | MIC GM (geometric mean of the MIC values) (Pseudomonas aeruginosa; Brain Heart Infusion medium) [µg/mL] | MIC CP 204 (Pseudomonas aeruginosa; Brain Heart Infusion medium) [µg/mL] | MIC M 2 (Pseudomonas aeruginosa; Brain Heart Infusion medium) [µg/mL] | MIC PA 14 (Pseudomonas aeruginosa; Brain Heart Infusion medium) [µg/mL] | MIC PAK (Pseudomonas aeruginosa; Brain Heart Infusion medium) [µg/mL] | MIC WR 5 (Pseudomonas aeruginosa; Brain Heart Infusion medium) [µg/mL] | MIC PAO 1 (Pseudomonas aeruginosa; Mueller Hinton medium) [µg/mL] | MIC GM (geometric mean of the MIC values) (Pseudomonas aeruginosa; Mueller Hinton medium) [µg/mL] | MIC CP 204 (Pseudomonas aeruginosa; Mueller Hinton medium) [µg/mL] | MIC M 2 (Pseudomonas aeruginosa; Mueller Hinton medium) [µg/mL] | MIC PA 14 (Pseudomonas aeruginosa; Mueller Hinton medium) [µg/mL] | MIC PAK (Pseudomonas aeruginosa; Mueller Hinton medium) [µg/mL] | MIC WR 5 (Pseudomonas aeruginosa; Mueller Hinton medium) [µg/mL] | MIC GM (geometric mean) [1] [µM] | PA (dimerization / self-association parameter) [2] | MIC GM (geometric mean) (Acinetobacter baumannii) [µM] | Hydrophobicity (retention time in RP-HPLC) [4] [min] | Structure (SMILES) | HC50 at 18 h [3]
1 | 10.4 (≈ 3.59 µM) | 14.7 | 41.7 (≈ 14.4 µM) | 10.4 (≈ 3.59 µM) | 10.4 (≈ 3.59 µM) | 10.4 (≈ 3.59 µM) | 20.8 (≈ 7.17 µM) | 7.8 (≈ 2.69 µM) | 9.8 | 15.6 (≈ 5.38 µM) | 7.8 (≈ 2.69 µM) | 7.8 (≈ 2.69 µM) | 7.8 (≈ 2.69 µM) | 15.6 (≈ 5.38 µM) | 17.1 (≈ 49.6 µg/mL) | 7.21 | 0.9 (≈ 2.61 µg/mL) | 97.87 | CC[C@@H](C)[C@@H](NC(=O)[C@@H](C)NC(=O)[C@@H](CO)NC(=O)[C@@H](CC(C)C)NC(=O)[C@@H](CC(C)C)NC(=O)[C@H](NC(=O)[C@@H](CCCCN)NC(=O)[C@@H](CC(C)C)NC(=O)[C@@H](C)NC(=O)[C@@H](CCCCN)NC(=O)[C@@H](CCCCN)NC(=O)[C@@H](CCCCN)NC(=O)[C@@H](C)NC(=O)[C@@H](CCCCN)NC(=O)[C@@H](CO)NC(=O)[C@@H](Cc1ccccc1)NC(=O)[C@H](NC(=O)[C@@H](CCCCN)NC(=O)[C@@H](CC(C)C)NC(=O)[C@@H](Cc1ccccc1)NC(=O)[C@@H](CO)NC(=O)[C@@H](CO)NC(=O)[C@@H](Cc1c[nH]c2ccccc12)NC(=O)[C@@H](CO)NC(C)=O)[C@H](C)O)[C@H](C)O)C(=O)N[C@H](CO)C(=O)N[C@H](CO)C(N)=O [Peptide D18, Ac-SWSSFLKTFSKAKKKALKTLLSAISS-amide] | 55 µg/mL and 19 µM
2 | 7.8 (≈ 2.62 µM) | 9.8 | 15.6 (≈ 5.23 µM) | 7.8 (≈ 2.62 µM) | 7.8 (≈ 2.62 µM) | 15.6 (≈ 5.23 µM) | 7.8 (≈ 2.62 µM) | 7.8 (≈ 2.62 µM) | 12.4 | 31.3 (≈ 10.5 µM) | 15.6 (≈ 5.23 µM) | 7.8 (≈ 2.62 µM) | 7.8 (≈ 2.62 µM) | 15.6 (≈ 5.23 µM) | 6.0 (≈ 17.9 µg/mL) | 6.39 | 0.6 (≈ 1.79 µg/mL) | 95.90 | CC[C@@H](C)[C@@H](NC(=O)[C@@H](C)NC(=O)[C@@H](CCCCN)NC(=O)[C@@H](CC(C)C)NC(=O)[C@@H](CC(C)C)NC(=O)[C@H](NC(=O)[C@@H](CCCCN)NC(=O)[C@@H](CC(C)C)NC(=O)[C@@H](C)NC(=O)[C@@H](CCCCN)NC(=O)[C@@H](CCCCN)NC(=O)[C@@H](CCCCN)NC(=O)[C@@H](C)NC(=O)[C@@H](CCCCN)NC(=O)[C@@H](CO)NC(=O)[C@@H](Cc1ccccc1)NC(=O)[C@H](NC(=O)[C@@H](CCCCN)NC(=O)[C@@H](CC(C)C)NC(=O)[C@@H](Cc1ccccc1)NC(=O)[C@@H](CO)NC(=O)[C@@H](CCCCN)NC(=O)[C@@H](Cc1c[nH]c2ccccc12)NC(=O)[C@@H](CO)NC(C)=O)[C@H](C)O)[C@H](C)O)C(=O)N[C@H](CO)C(=O)N[C@H](CO)C(N)=O [Peptide D20, Ac-SWKSFLKTFSKAKKKALKTLLKAISS-amide] | 77 µg/mL and 25.8 µM
3 | 7.8 (≈ 2.65 µM) | 9.8 | 15.6 (≈ 5.31 µM) | 7.8 (≈ 2.65 µM) | 3.9 (≈ 1.33 µM) | 15.6 (≈ 5.31 µM) | 15.6 (≈ 5.31 µM) | 3.9 (≈ 1.33 µM) | 7.8 | 15.6 (≈ 5.31 µM) | 15.6 (≈ 5.31 µM) | 3.9 (≈ 1.33 µM) | 3.9 (≈ 1.33 µM) | 15.6 (≈ 5.31 µM) | 5.3 (≈ 15.6 µg/mL) | 7.07 | 0.8 (≈ 2.35 µg/mL) | 97.94 | CC[C@@H](C)[C@@H](NC(=O)[C@@H](C)NC(=O)[C@@H](CCCCN)NC(=O)[C@@H](CC(C)C)NC(=O)[C@@H](CC(C)C)NC(=O)[C@H](NC(=O)[C@@H](CCCCN)NC(=O)[C@@H](CC(C)C)NC(=O)[C@@H](C)NC(=O)[C@@H](CCCCN)NC(=O)[C@@H](CCCCN)NC(=O)[C@@H](CCCCN)NC(=O)[C@@H](C)NC(=O)[C@@H](CCCCN)NC(=O)[C@@H](CO)NC(=O)[C@@H](Cc1ccccc1)NC(=O)[C@H](NC(=O)[C@@H](CCCCN)NC(=O)[C@@H](CC(C)C)NC(=O)[C@@H](Cc1ccccc1)NC(=O)[C@@H](CO)NC(=O)[C@@H](CO)NC(=O)[C@@H](Cc1c[nH]c2ccccc12)NC(=O)[C@@H](CO)NC(C)=O)[C@H](C)O)[C@H](C)O)C(=O)N[C@H](CO)C(=O)N[C@H](CO)C(N)=O [Peptide D19, Ac-SWSSFLKTFSKAKKKALKTLLKAISS-amide] | 36 µg/mL and 12.2 µM
